Source: patent US6846804B2 (priority 2000, dated 2005)

How the values were obtained:
spores of Bacillus = details: cited from earlier work
B. cereus T spores = assay type: cell-based, Bacillus cereus T

Question: Which results are given for Sublancin?
Answer: inhibition of outgrowth of spores (spores of Bacillus): highly active; halo (inhibition of spore germination/outgrowth) (B. cereus T spores): clear halo
